These results are taken from the supplement of paper PMC5412046.

Where a name gives a salt, the structure may show the parent alone.

In general, viability refers to a read-out of living cells in per cent, often relative to untreated cells.

Assay [1] deals with SB.msgc-1. Nature of the assay: viability at highest tested concentration (MAXR) relative to DMSO; higher = less cytotoxic. The note with it: SB.msgc-1 (sporadic gastric cancer). The method, boiled down:
(§1)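 Compound in DMSO was pinned (23 nL) at 11 threefold-diluted concentrations into wells containing 500 patient-derived gastric cancer cells, hereditary or sporadic, in 5 μL medium per 1536 well. Cells were incubated for 48 h, then exposed to CellTiter-Glo for 30 min at room temperature. Luminescence was measured on a ViewLux. The values are viability normalised to DMSO, either at the highest concentration or as trapezoidal area under the curve.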

Assay [2] deals with SB.mhdgc-1. The description is as above. Particulars: SB.mhdgc-1 (hereditary c.1380delA CDH1 gastric cancer). The method, boiled down: as §1
The test system of assay [3] is SB.msgc-1. The experiment in a line: area under the dose-response curve of % viability (trapezoidal, 11 doses) (% viability x log10 concentration); higher = less cytotoxic. The note with it: SB.msgc-1 (sporadic gastric cancer). The method, boiled down:
as §1

In assay [4] the test system is SB.mhdgc-1. The description is as above. Particulars: SB.mhdgc-1 (hereditary c.1380delA CDH1 gastric cancer). The method, boiled down:
as §1

Turning to `COc1cc(CNC(=O)CCCC/C=C/C(C)C)ccc1O` [Capsaicin] (top concentration 46.0829 µM), the viability in the assay with SB.msgc-1 [1] came out at 108%; in the assay on SB.mhdgc-1 [2], 105%. For the same compound, the “area under the dose-response curve” value with SB.msgc-1 [3] is 537; in the assay with SB.mhdgc-1 [4], 511.

On to `CC[S+](=O)([O-])c1cccc(-c2cc(C(=O)NC3CCN(C)CC3)c(C)c3[nH]c4ncc(C)cc4c23)c1` [TAK-901] (top concentration 46.0829 µM), for which the viability in the assay on SB.msgc-1 [1] worked out at 49.1%; in the assay with SB.mhdgc-1 [2] it was 44.2%. Moreover, the figures for the “area under the dose-response curve” value with SB.msgc-1 [3] and in the assay on SB.mhdgc-1 [4] were 482 and 383, respectively.

Take `CNC(=O)c1cccc(-c2ccc3c(N4CCOC[C@@H]4C)nc(N4CCOC[C@@H]4C)nc3n2)c1` [AZD-2014] (top concentration 46.0829 µM): the figures for the viability in the assay on SB.msgc-1 [1] and in the assay on SB.mhdgc-1 [2] were 59.6% and 49.5%, respectively. Further, the results for the “area under the dose-response curve” value in the assay on SB.msgc-1 [3] and in the assay with SB.mhdgc-1 [4] were 425 and 317, respectively.

In the case of `CC(C)(C)C1=NC2=C([NH]1)C3=CC=C(F)C=C3C4=C2\C=C/NC4=O` [Merck 5] (top concentration 46.0829 µM), the viability came to 78.4% with SB.msgc-1 [1] and 119% with SB.mhdgc-1 [2]. Also, the “area under the dose-response curve” value amounted to 513 with SB.msgc-1 [3] and 531 in the assay with SB.mhdgc-1 [4].

For `COc1cc[nH]c2ncc(C(=O)C(=O)N3CCN(C(=O)c4ccccc4)C[C@H]3C)c1-2` (top concentration 46.0829 µM), the viability with SB.msgc-1 [1] turned out to be 115%; in the assay with SB.mhdgc-1 [2], 81.9%. Besides, the “area under the dose-response curve” value in the assay with SB.msgc-1 [3] was 589; with SB.mhdgc-1 [4], 482.

In the case of `O=C1c2c(O)cc(O)cc2O[C@H](c2cc(O)c(O)c(O)c2)[C@H]1O` [Dihydromyricetin] (top concentration 46.0829 µM), the viability with SB.msgc-1 [1] came out at 62.8%; in the assay with SB.mhdgc-1 [2] it was 19.1%. The “area under the dose-response curve” value is 512 in the assay on SB.msgc-1 [3] and 460 with SB.mhdgc-1 [4].

Turning to `C\C1=N\N(C(=O)C1)C2=CC=CC=C2` [Edaravone] (top concentration 46.0829 µM), the viability in the assay with SB.msgc-1 [1] was 117%; with SB.mhdgc-1 [2], 121%. The “area under the dose-response curve” value in the assay with SB.msgc-1 [3] is 530; in the assay on SB.mhdgc-1 [4], 497.

As for `OC(=O)CNC(=O)\C1=C(/O)C2=CC=CC=C2N(CC3=CC=CC=C3)C1=O` [IOX2] (top concentration 46.0829 µM), the viability in the assay with SB.msgc-1 [1] worked out at 89.6%; in the assay with SB.mhdgc-1 [2], 88.1%. The “area under the dose-response curve” value came out at 543 with SB.msgc-1 [3] and 475 with SB.mhdgc-1 [4].

As for `COc1ccc2cc(-c3[nH]c(-c4ccc([S+](C)[O-])cc4)nc3-c3ccncc3)ccc2c1` (stereo not drawn) [Tie-2 kinase inhibitor] (top concentration 46.0829 µM), the viability in the assay on SB.msgc-1 [1] was 49.6%; in the assay with SB.mhdgc-1 [2], 35.6%. The “area under the dose-response curve” value in the assay on SB.msgc-1 [3] worked out at 485; in the assay on SB.mhdgc-1 [4], 520.

With `Clc1ccc(C2(c3ccc(-c4cn[nH]c4)cc3)CCNCC2)cc1` [AT-7867] (top concentration 46.0829 µM), the viability with SB.msgc-1 [1] turned out to be 38%; in the assay with SB.mhdgc-1 [2], 3.91%. Further, the “area under the dose-response curve” value came out at 457 in the assay with SB.msgc-1 [3] and 425 in the assay with SB.mhdgc-1 [4].

On to `CC(C)C[C@H](NC(=O)[C@H](Cc1ccccc1)NC(=O)c1cnccn1)B(O)O` [Bortezomib] (top concentration 46.0829 µM), for which the viability is 3.19% in the assay on SB.msgc-1 [1] and 3.74% in the assay with SB.mhdgc-1 [2]. Also, the “area under the dose-response curve” value in the assay with SB.msgc-1 [3] was determined as 137; in the assay with SB.mhdgc-1 [4] it was 157.

Take `C/C=C/C/C=C/CCC(=O)[C@H]1O[C@H]1C(N)=O` [Cerulenin] (top concentration 46.0829 µM): the viability in the assay with SB.msgc-1 [1] was found to be 75%; in the assay with SB.mhdgc-1 [2], 67.9%. For the same compound, the “area under the dose-response curve” value in the assay with SB.msgc-1 [3] worked out at 562; with SB.mhdgc-1 [4] it was 475.

With `O=C(O)c1cc(O)c2c(c1)C(=O)c1cccc(O)c1C2=O` [Rhein] (top concentration 92.1659 µM), the viability came to 43.1% in the assay on SB.msgc-1 [1] and 53.8% with SB.mhdgc-1 [2]. Further, the “area under the dose-response curve” value is 570 in the assay on SB.msgc-1 [3] and 588 in the assay on SB.mhdgc-1 [4].

Take `COc1ccc2c(c1OC)CN1CCc3cc4c(cc3C1C2)OCO4` (stereo not drawn) [Tetrahydroberberine Canadine] (top concentration 46.0829 µM): the viability with SB.msgc-1 [1] worked out at 23.9%; in the assay with SB.mhdgc-1 [2], 72.5%. For the same compound, the “area under the dose-response curve” value in the assay on SB.msgc-1 [3] came out at 292; with SB.mhdgc-1 [4], 550.

For the compound `C[C@H]1O[C@H](C[C@H](O)[C@@H]1O)O[C@H]2[C@@H](O)C[C@@H](O[C@@H]2C)O[C@H]3[C@@H](O)C[C@@H](O[C@@H]3C)O[C@H]4CC[C@@]5(C)[C@H](CC[C@@H]6[C@@H]5C[C@@H](O)[C@]7(C)[C@H](CC[C@]67O)C/8=C/C(=O)OC8)C4` [Digoxin] (top concentration 92.1659 µM), the viability turned out to be 49.9% in the assay with SB.msgc-1 [1] and 21.9% in the assay with SB.mhdgc-1 [2]. Besides, the “area under the dose-response curve” value worked out at 377 in the assay on SB.msgc-1 [3] and 343 in the assay on SB.mhdgc-1 [4].

For `c1nc2c(NC3CCCCC3)nc(Nc3ccc(N4CCOCC4)cc3)nc2[nH]1` [Reversine] (top concentration 46.0829 µM), the figures for the viability in the assay on SB.msgc-1 [1] and in the assay on SB.mhdgc-1 [2] were 15.7% and 5.27%, respectively. Besides, the “area under the dose-response curve” value with SB.msgc-1 [3] stood at 538; in the assay with SB.mhdgc-1 [4] it was 499.

As for `Cc1c(C)n(Cc2ccc(-c3ccccc3C(=O)O)cc2)c2ccc(C(=O)N[C@@H](C)c3ccc([N+](=O)[O-])cc3)cc12` [SR1664] (top concentration 46.0829 µM), the results for the viability with SB.msgc-1 [1] and with SB.mhdgc-1 [2] were 32.4% and 35.3%, respectively. In addition, the “area under the dose-response curve” value was found to be 422 in the assay with SB.msgc-1 [3] and 315 in the assay with SB.mhdgc-1 [4].

Turning to `O=C(Oc1ccc([N+](=O)[O-])cc1)N1CCC(C(O)(c2ccc3c(c2)OCO3)c2ccc3c(c2)OCO3)CC1` [JZL-184] (top concentration 46.0829 µM), the viability in the assay with SB.msgc-1 [1] is 53.1%; in the assay with SB.mhdgc-1 [2] it was 70.2%. Moreover, the “area under the dose-response curve” value in the assay on SB.msgc-1 [3] turned out to be 316; in the assay on SB.mhdgc-1 [4] it was 469.

Take `CC(=O)[C@]1(O)Cc2c(O)c3c(c(O)c2[C@@H](O[C@H]2C[C@H](N)[C@H](O)[C@H](C)O2)C1)C(=O)c1ccccc1C3=O` [Idarubicin hydrochloride] (top concentration 46.0829 µM): the viability in the assay on SB.msgc-1 [1] was found to be 2.05%; in the assay with SB.mhdgc-1 [2], 2.79%. Moreover, the “area under the dose-response curve” value in the assay on SB.msgc-1 [3] was determined as 372; in the assay on SB.mhdgc-1 [4], 319.

Take `CO[C@@H]1[C@H](N(C)C(=O)c2ccccc2)C[C@H]2O[C@]1(C)n1c3ccccc3c3c4c(c5c6ccccc6n2c5c31)C(=O)NC4` [Midostaurin] (top concentration 46.0829 µM): the viability amounted to 56.2% with SB.msgc-1 [1] and 33.4% in the assay with SB.mhdgc-1 [2]. Moreover, the results for the “area under the dose-response curve” value in the assay on SB.msgc-1 [3] and in the assay on SB.mhdgc-1 [4] were 490 and 389, respectively.

`C/C=C(/C)C(=O)O[C@H]1C(C)=C2[C@H]([C@@H]1OC(=O)CCCCCCC)[C@@](C)(OC(C)=O)C[C@H](OC(=O)CCC)[C@@]1(O)[C@H]2OC(=O)[C@@]1(C)O` [Thapsigargin] (top concentration 46.0829 µM): the figures for the viability in the assay on SB.msgc-1 [1] and in the assay with SB.mhdgc-1 [2] were 2.33% and 2.37%, respectively. Moreover, the “area under the dose-response curve” value was determined as 268 with SB.msgc-1 [3] and 237 in the assay on SB.mhdgc-1 [4].

In the case of `C[C@@]12C[C@@]3(O)O[C@@H](O1)[C@]1(COC(=O)c4ccccc4)[C@H]3C[C@@]12O[C@@H]1O[C@H](CO)[C@@H](O)[C@H](O)[C@H]1O` [Paeoniflorin] (top concentration 46.0829 µM), the values for the viability in the assay with SB.msgc-1 [1] and in the assay with SB.mhdgc-1 [2] were 114% and 108%, respectively. In addition, the “area under the dose-response curve” value with SB.msgc-1 [3] and in the assay with SB.mhdgc-1 [4] was 500 throughout.
